Test results published in paper PMC6039096 (Science translational medicine, 2017).

Assays:
[1] = molecular target: T1, EZH1 (Homo sapiens, UniProt Q92800); test: biochemical inhibition assay with recombinant EZH1
T1 sequence (Q92800 1-747): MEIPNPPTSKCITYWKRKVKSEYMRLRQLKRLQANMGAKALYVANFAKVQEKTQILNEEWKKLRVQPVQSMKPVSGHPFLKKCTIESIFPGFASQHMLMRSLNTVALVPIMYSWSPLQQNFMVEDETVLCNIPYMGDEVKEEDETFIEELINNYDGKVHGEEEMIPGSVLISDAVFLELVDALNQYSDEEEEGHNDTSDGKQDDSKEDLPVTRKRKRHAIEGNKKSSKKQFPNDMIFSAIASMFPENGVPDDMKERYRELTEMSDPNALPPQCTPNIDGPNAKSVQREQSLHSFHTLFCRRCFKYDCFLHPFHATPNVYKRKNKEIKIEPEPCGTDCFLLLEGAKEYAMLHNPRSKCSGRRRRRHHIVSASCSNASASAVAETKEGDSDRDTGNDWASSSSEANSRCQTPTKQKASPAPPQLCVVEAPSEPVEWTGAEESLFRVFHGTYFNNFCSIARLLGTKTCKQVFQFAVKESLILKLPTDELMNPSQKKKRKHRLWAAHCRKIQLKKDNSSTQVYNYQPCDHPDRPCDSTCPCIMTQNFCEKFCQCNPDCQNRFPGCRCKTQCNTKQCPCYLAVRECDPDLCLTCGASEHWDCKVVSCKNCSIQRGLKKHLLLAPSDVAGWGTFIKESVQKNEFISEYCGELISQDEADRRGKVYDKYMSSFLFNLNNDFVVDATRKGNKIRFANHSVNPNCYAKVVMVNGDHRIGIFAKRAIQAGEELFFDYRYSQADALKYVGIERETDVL

[2] = molecular target: EZH2 (Homo sapiens, UniProt Q15910); test: biochemical inhibition assay with recombinant EZH2
EZH2, sequence (Q15910 whole entry): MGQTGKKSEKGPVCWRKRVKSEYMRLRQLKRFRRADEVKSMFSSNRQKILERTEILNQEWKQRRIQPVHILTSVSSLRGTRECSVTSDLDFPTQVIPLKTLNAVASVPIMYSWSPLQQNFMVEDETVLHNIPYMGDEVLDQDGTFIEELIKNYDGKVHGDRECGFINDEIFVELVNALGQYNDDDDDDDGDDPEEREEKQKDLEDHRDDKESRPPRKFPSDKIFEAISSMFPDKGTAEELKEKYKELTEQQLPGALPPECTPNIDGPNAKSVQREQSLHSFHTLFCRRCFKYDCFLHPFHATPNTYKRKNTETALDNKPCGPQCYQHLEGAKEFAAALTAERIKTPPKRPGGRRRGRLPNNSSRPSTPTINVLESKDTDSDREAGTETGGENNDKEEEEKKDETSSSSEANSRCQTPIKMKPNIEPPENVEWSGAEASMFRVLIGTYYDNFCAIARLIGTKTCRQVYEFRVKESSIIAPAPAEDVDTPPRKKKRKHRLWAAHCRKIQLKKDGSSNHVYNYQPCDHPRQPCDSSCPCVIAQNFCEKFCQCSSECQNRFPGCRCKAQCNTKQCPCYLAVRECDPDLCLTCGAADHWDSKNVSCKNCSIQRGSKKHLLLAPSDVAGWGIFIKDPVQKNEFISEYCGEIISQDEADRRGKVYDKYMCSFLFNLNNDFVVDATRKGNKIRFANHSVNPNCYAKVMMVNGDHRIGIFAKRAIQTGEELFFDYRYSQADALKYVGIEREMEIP

- Ki [1]: 26.5 nM
- Ki [2]: 2.2 nM
SMILES: CCCc1cc(C)[nH]c(=O)c1CNC(=O)c1cc(-c2ccc(N3CCN(C)CC3)nc2)nc2c1cnn2C(C)C [JQ-EZ-05]
